The text below walks through data of US8637525B2, “Compounds for the reduction of beta-amyloid production” (Bristol-Myers Squibb Company, priority 2009, dated 2014).

SMILES strings stand for the structures. pIC50: −log10 of the molar value. Counter-ions that a name gives are not always drawn. Like-named read-outs stand apart in the source and are kept apart here.

In the experiment the test system is Aβ1-42 production. The experiment in a line: Cellular assay for inhibition of Aβ1-42 production (H4 APP751 SWE clone 8.20). The conditions noted are these: H4 APP751 SWE clone 8.20 cells, 19 h incubation. Type of experiment: cell-based. The essentials:
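Compound-treated cells were incubated 19 h at 37 °C in 5% CO2. Aβ42 in the cell plate was detected overnight at 4 °C with an Aβ42 neoepitope antibody (565, Wallac-labelled, 0.8 ng/well) plus N-terminal antibody 26D6 (APC, 75 ng/well) in 40 mM Tris-HCl pH 7.4, 0.2% BSA. IC50s came from curve fitting.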

Where [1] appears, read: class symbols, read-out: Activity Rating (Aβ42 cellular IC50).
The mark [2] stands for this setting: 19 h, class symbols, read-out: Activity Rating (Aβ42 cellular IC50).
Where [3] appears, read: 19 h, read-out: Activity Rating (Aβ42 cellular IC50), numeric value.

As usually defined, the pIC50 is the IC50 on a negative log10 scale, so that one unit is a factor of ten. In the case of `COc1cc(Nc2nc3c(c(N4CCC(N(C)C)C4)n2)CCC3c2ccc(F)cc2)ccc1-n1cnc(Cl)c1` (single isomer, unassigned) [Example 29B, N-(4-(4-chloro-1H-imidazol-1-yl)-3-methoxyphenyl)-4-(3-(dimethylamino)pyrrolidin-1-yl)-7-(4-fluorophenyl)-6,7-dihydro-5H-cyclopenta[d]pyrimidin-2-amine], the pIC50 under setting [1] was 7.00 to 8.00. Regarding `CNc1nc(Nc2ccc(-n3cnc(C)n3)c(F)c2)nc2c1CCC2c1ccccc1` (stereo not drawn) [Example 2, N2-(3-fluoro-4-(3-methyl-1H-1,2,4-triazol-1-yl)phenyl)-N4-methyl-7-phenyl-6,7-dihydro-5H-cyclopenta[d]pyrimidine-2,4-diamine], under setting [2], the pIC50 was 8.00 to 8.82.

Consider `CNc1nc(Nc2ccc3c(ccn3C)c2)nc2c1CCC2c1ccccc1` (stereo not drawn) [Example 254, N4-methyl-N2-(1-methyl-1H-indol-5-yl)-7-phenyl-6,7-dihydro-5H-cyclopenta[d]pyrimidine-2,4-diamine], for which, under setting [3], the pIC50 was 6.00. As to `CNc1nc(Nc2ccc(C3CC3)cc2)nc2c1CCC2c1ccc(F)cc1` (stereo not drawn) [Example 258, N2-(4-cyclopropylphenyl)-7-(4-fluorophenyl)-N4-methyl-6,7-dihydro-5H-cyclopenta[d]pyrimidine-2,4-diamine], the pIC50 under setting [2] was under 6.00. For the compound `COc1cc(Nc2nc3c(c(N4CCC(F)C4)n2)CCOC3c2ccc(F)cc2)ccc1-n1cnc(Cl)c1` (stereo in doubt) [Example 91B, N-(4-(4-chloro-1H-imidazol-1-yl)-3-methoxyphenyl)-8-(4-fluorophenyl)-4-((S)-3-fluoropyrrolidin-1-yl)-6,8-dihydro-5H-pyrano[3,4-d]pyrimidin-2-amine], under setting [1], the pIC50 is 6.00 to 7.00. `CC[C@H](COC)Nc1nc(Nc2ccc(-n3cnc(Cl)c3)c(OC)c2)nc2c1CCC2c1ccc(F)cc1` (single isomer, unassigned) [Example 48A]: the negative-log IC50 (pIC50) under setting [2] is 8.00 to 8.82. Regarding `COc1cc(Nc2nc3c(c(N4CCC5(C4)OCCO5)n2)CCC3c2ccccc2)ccc1-n1cnc(Cl)c1` (stereo not drawn) [Example 205, N-(4-(4-chloro-1H-imidazol-1-yl)-3-methoxyphenyl)-7-phenyl-4-(1,4-dioxa-7-azaspiro[4.4]nonan-7-yl)-6,7-dihydro-5H-cyclopenta[d]pyrimidin-2-amine], under setting [2], the pIC50 is 7.00 to 8.00. On the same count and under the same terms, then `CCN1Cc2c(nc(Nc3ccc(-n4cnc(Cl)c4)c(OC)c3)nc2N(C)CC)C(c2ccc(F)cc2)C1` (stereo not drawn) [Example 158, N2-(4-(4-chloro-1H-imidazol-1-yl)-3-methoxyphenyl)-N4,6-diethyl-8-(4-fluorophenyl)-N4-methyl-5,6,7,8-tetrahydropyrido[4,3-d]pyrimidine-2,4-diamine], with 7.00 to 8.00. For the compound `CNc1nc(Nc2cnc(-n3cnc(Cl)c3)c(OC)c2)nc2c1CCC2c1cc(F)c(F)c(F)c1` (stereo not drawn) [Example 105, N^2-(6-(4-Chloro-1H-imidazol-1-yl)-5-methoxypyridin-3-yl)-N^4-methyl-7-(3,4,5-trifluorophenyl)-6,7-dihydro-5H-cyclopenta[d]pyrimidine-2,4-diamine], the negative-log IC50 (pIC50) under setting [3] was 8.06.

On to `CNc1nc(Nc2ccc(-n3cnc(Cl)c3)c(OC)c2)nc2c1COCC2c1ccc(OC(F)(F)F)cc1` (stereo not drawn) [Example 122A, N2-(4-(4-chloro-1H-imidazol-1-yl)-3-methoxyphenyl)-N4-methyl-8-(4-(trifluoromethoxy)phenyl)-7,8-dihydro-5H-pyrano[4,3-d]pyrimidine-2,4-diamine], for which the pIC50 under setting [2] is 8.00 to 8.82. The same measure, in the same setting: then `COc1cc(Nc2ncc3c(n2)C(c2ccccc2)CCC3)ccc1-n1cnc(Cl)c1` (stereo not drawn) [Example 125, N-(4-(4-chloro-1H-imidazol-1-yl)-3-methoxyphenyl)-8-phenyl-5,6,7,8-tetrahydroquinazolin-2-amine], with 7.00 to 8.00.

Turning to `COc1cc(Nc2nc3c(c(N(C)C)n2)CCC3c2ccc(F)c(F)c2)ccc1-n1cnc(Cl)c1` (racemic) [Example 95, N^2-(4-(4-Chloro-1H-imidazol-1-yl)-3-methoxyphenyl)-7-(3,4-difluorophenyl)-N^4,N^4-dimethyl-6,7-dihydro-5H-cyclopenta[d]pyrimidine-2,4-diamine], the negative-log IC50 (pIC50) under setting [2] was 8.00 to 8.82. `CCNc1nc(Nc2ccc(-n3cnc(Cl)c3)c(OC)c2)nc2c1CN(CC(F)F)CC2c1ccccc1` (stereo not drawn) [Example 197, N4-ethyl-N2-(3-methoxy-4-(4-chloro-1H-13-imidazol-1-yl)phenyl)-8-phenyl-6-(2,2-difluoroethyl)-5,6,7,8-tetrahydropyrido[4,3-d]pyrimidine-2,4-diamine]: the pIC50 (read-out: Activity Rating (Aβ42 cellular IC50), numeric value) was 7.80.

For `CCNc1nc(Nc2ccc(-n3cnc(Cl)c3)c(OC)c2)nc2c1CCC2c1ccc(OC(F)(F)F)cc1` (single isomer, unassigned) [Example 98B, N^2-(4-(4-Chloro-1H-imidazol-1-yl)-3-methoxyphenyl)-N^4-ethyl-7-(4-(trifluoromethoxy)phenyl)-6,7-dihydro-5H-cyclopenta[d]pyrimidine-2,4-diamine], the pIC50 under setting [1] is 7.00 to 8.00. `CNc1nc(Nc2ccc(-n3cnc(Cl)c3)c(OC)c2)nc2c1CCC2c1cc(F)c(F)c(F)c1` (single isomer, unassigned) [Example 103A, N^2-(4-(4-chloro-1H-imidazol-1-yl)-3-methoxyphenyl)-N^4-methyl-7-(3,4,5-trifluorophenyl)-6,7-dihydro-5H-cyclopenta[d]pyrimidine-2,4-diamine]: the pIC50 under setting [1] was 8.00 to 8.82. With `CC[C@H](COC)Nc1nc(Nc2ccc(-n3cnc(Cl)c3)c(OC)c2)nc2c1CCC2c1ccc(F)cc1` (single isomer, unassigned) [Example 48B], the negative logarithm of the IC50 (pIC50) under setting [3] is 6.89. Consider `CCNc1nc(Nc2ccc(-n3cnc(Cl)c3)c(OC)c2)nc2c1CN(C)CC2c1ccc(F)cc1` (stereo not drawn) [Example 164A, N2-(4-(4-chloro-1H-imidazol-1-yl)-3-methoxyphenyl)-N4-ethyl-8-(4-fluorophenyl)-6-methyl-5,6,7,8-tetrahydropyrido[4,3-d]pyrimidine-2,4-diamine], for which the pIC50 under setting [2] was 7.00 to 8.00. Same read-out and setting: under `CNc1nc(Nc2ccc(-c3ccnc(C)c3)c(OC)c2)nc2c1CCC2c1ccccc1` (stereo not drawn) [Example 261, N2-(3-methoxy-4-(2-methylpyridin-4-yl)phenyl)-N4-methyl-7-phenyl-6,7-dihydro-5H-cyclopenta[d]pyrimidine-2,4-diamine] stands 8.00 to 8.82.

Consider `CCNc1nc(Nc2ccc(-n3ncnc3C)c(F)c2)nc2c1COCC2c1ccc(F)c(F)c1` (stereo not drawn) [Example 116B, 8-(3,4-difluorophenyl)-N4-ethyl-N2-(3-fluoro-4-(5-methyl-1H-1,2,4-triazol-1-yl)phenyl)-7,8-dihydro-5H-pyrano[4,3-d]pyrimidine-2,4-diamine], for which the pIC50 under setting [1] was 6.00 to 7.00.

In the case of `Cc1ccc(C(C)C)cc1Nc1nc(Nc2ccc(C#N)cc2)nc2c1CCC2c1ccccc1` (stereo not drawn) [Example 215A, 4-(4-(5-isopropyl-2-methylphenylamino)-7-phenyl-6,7-dihydro-5H-cyclopenta[d]pyrimidin-2-ylamino)benzonitrile], under setting [2], the pIC50 was under 6.00. In the case of `COc1cc(Nc2nc3c(c(N4CC(F)(F)C4)n2)COCC3c2ccc(Cl)cc2)ccc1-n1cnc(Cl)c1` (stereo not drawn) [Example 66, N-(4-(4-chloro-1H-imidazol-1-yl)-3-methoxyphenyl)-8-(4-chlorophenyl)-4-(3,3-difluoroazetidin-1-yl)-7,8-dihydro-5H-pyrano[4,3-d]pyrimidin-2-amine], the pIC50 under setting [2] is 7.00 to 8.00. Still for that read-out and setting: under `CNc1nc(Nc2ccc(-n3cnc(Cl)c3)c(OC)c2)nc2c1COCC2c1ccc(F)c(F)c1` (racemic) [Example 115, N2-(4-(4-chloro-1H-imidazol-1-yl)-3-methoxyphenyl)-8-(3,4-difluorophenyl)-N4-methyl-7,8-dihydro-5H-pyrano[4,3-d]pyrimidine-2,4-diamine, TFA] stands 8.00 to 8.82. With `CCNc1nc(Nc2ccc(-n3cnc(Cl)c3)c(OC)c2)nc2c1CN(C(=O)COC)CC2c1ccccc1` (stereo not drawn) [Example 133A, 1-(2-(4-(4-chloro-1H-imidazol-1-yl)-3-methoxyphenylamino)-4-(ethylamino)-8-phenyl-7,8-dihydropyrido[4,3-d]pyrimidin-6(5H)-yl)-2-methoxyethanone], under setting [1], the pIC50 is 8.00 to 8.82. `COc1cc(Nc2nc3c(c(N4CCC(O)(C(F)(F)F)C4)n2)CCC3c2ccc(F)cc2)ccc1-n1cnc(Cl)c1` (single isomer, unassigned) [Example 28, 1-(2-(4-(4-chloro-1H-imidazol-1-yl)-3-methoxyphenylamino)-7-(4-fluorophenyl)-6,7-dihydro-5H-cyclopenta[d]pyrimidin-4-yl)-3-(trifluoromethyl)pyrrolidin-3-ol]: the pIC50 under setting [1] is 7.00 to 8.00.

For the compound `COc1cc(Nc2nc3c(c(N4CC(F)(F)C4)n2)CNCC3c2ccc(F)cc2)ccc1-n1cnc(Cl)c1` (stereo not drawn) [Example 162, N-(4-(4-chloro-1H-imidazol-1-yl)-3-methoxyphenyl)-4-(3,3-difluoroazetidin-1-yl)-8-(4-fluorophenyl)-5,6,7,8-tetrahydropyrido[4,3-d]pyrimidin-2-amine], the negative-log IC50 (pIC50) under setting [2] was 7.00 to 8.00. Turning to `CCNc1nc(Nc2ccc(-n3cnc(Cl)c3)c(OC)c2)nc2c1COCC2c1ccc(F)c(F)c1` (stereo not drawn) [Example 113B, N2-(4-(4-chloro-1H-imidazol-1-yl)-3-methoxyphenyl)-8-(3,4-difluorophenyl)-N4-ethyl-7,8-dihydro-5H-pyrano[4,3-d]pyrimidine-2,4-diamine], under setting [1], the pIC50 was 7.00 to 8.00. Same read-out and setting: under `COc1cc(Nc2nc3c(c(N4CCC4)n2)CCC3c2ccccc2)ccc1-n1cnc(Cl)c1` (single isomer, unassigned) [Example 6A, 4-(azetidin-1-yl)-N-(4-(4-chloro-1H-imidazol-1-yl)-3-methoxyphenyl)-7-phenyl-6,7-dihydro-5H-cyclopenta[d]pyrimidin-2-amine] stands 8.00 to 8.82.
